ChEMBL document CHEMBL5576124, “Discovery of an Exceptionally Orally Bioavailable and Potent HPK1 PROTAC with Enhancement of Antitumor Efficacy of Anti-PD-L1 Therapy” (J Med Chem, 2024)
Activity calls are given as the source filed them. The rule behind the calls is not given here.

Columns and labels:
[1] = molecular target: T1, Protein cereblon/Mitogen-activated protein kinase kinase kinase kinase 1 (Homo sapiens, UniProt Q92918+Q96SW2); test: PROTAC activity at CRBN/HPK1 in human Jurkat cells assessed as maximal degradation of HPK1 protein incubated for 24 hrs by Western blotting analysis relative to control; type: cell-based
[2] = Half life in Sprague-Dawley rat at 10 mg/kg,po measured upto 24 hrs by LC-MS analysis; type: ADME, organism-based; details: in vivo
[3] = Stability in human liver microsomes assessed as parent compound remaining; type: ADME, Microsome
[4] = Stability in human liver microsomes assessed as parent compound remaining measured after 5 mins; type: ADME, Microsome; details: read-out: Stability
[5] = Stability in human liver microsomes assessed as parent compound remaining measured after 60 mins; type: ADME, Microsome; details: read-out: Stability
[6] = Stability in mouse liver microsomes assessed as parent compound remaining; type: ADME, Microsome
[7] = Stability in mouse liver microsomes assessed as parent compound remaining measured after 15 mins; type: ADME, Microsome; details: read-out: Stability
[8] = Stability in mouse liver microsomes assessed as parent compound remaining measured after 60 mins; type: ADME, Microsome; details: read-out: Stability
[9] = Metabolic stability in human liver microsomes assessed as intrinsic clearance; type: ADME, Microsome; details: read-out: CLH
[10] = Metabolic stability in human liver microsomes assessed as microsomal intrinsic clearance; type: ADME, Microsome; details: read-out: CLH
[11] = Metabolic stability in human liver microsomes assessed as hepatic extraction ratio; type: ADME, Microsome; details: read-out: ERH
[12] = molecular target: T1, Protein cereblon/Mitogen-activated protein kinase kinase kinase kinase 1; test: PROTAC activity at CRBN/HPK1 in human Jurkat cells assessed as degradation of HPK1 protein at 1 uM preincubated with MG132 followed by compound addition incubated for 24 hrs by Western blotting analysis; type: cell-based
[13] = molecular target: T1, Protein cereblon/Mitogen-activated protein kinase kinase kinase kinase 1; test: PROTAC activity at CRBN/HPK1 in human Jurkat cells assessed as degradation of HPK1 protein at 1 uM preincubated with MLN4924 followed by compound addition incubated for 24 hrs by Western blotting analysis; type: cell-based
[14] = molecular target: T1, Protein cereblon/Mitogen-activated protein kinase kinase kinase kinase 1; test: PROTAC activity at CRBN/HPK1 in human Jurkat cells assessed as degradation of HPK1 protein at 1 uM preincubated with thalidomide followed by compound addition incubated for 24 hrs by Western blotting analysis; type: cell-based
T-cell line [15] = test: Immunostimulatory activity in human T cell assessed as increase in IL-2 secretion; type: functional, cell-based
T-cell line [16] = test: Immunostimulatory activity in human T cell assessed as fold increase in IL-2 secretion; type: functional
T-cell line [17] = test: Immunostimulatory activity in human T cell assessed as increase in IL-2 secretion at 10 uM relative to control; type: functional
Jurkat [18] = test: Antiproliferative activity against human Jurkat cells assessed as inhibition of cell growth at 4 to 10000 nM incubated for 3 days by CCK-8 assay; type: functional, cell-based; details: dose 4-10000 nM, time 3.0 day
[19] = molecular target: T2, Mitogen-activated protein kinase kinase kinase kinase 3 (Homo sapiens, UniProt Q8IVH8); test: Inhibition of GLK (unknown origin)
T2 sequence (Q8IVH8 whole entry): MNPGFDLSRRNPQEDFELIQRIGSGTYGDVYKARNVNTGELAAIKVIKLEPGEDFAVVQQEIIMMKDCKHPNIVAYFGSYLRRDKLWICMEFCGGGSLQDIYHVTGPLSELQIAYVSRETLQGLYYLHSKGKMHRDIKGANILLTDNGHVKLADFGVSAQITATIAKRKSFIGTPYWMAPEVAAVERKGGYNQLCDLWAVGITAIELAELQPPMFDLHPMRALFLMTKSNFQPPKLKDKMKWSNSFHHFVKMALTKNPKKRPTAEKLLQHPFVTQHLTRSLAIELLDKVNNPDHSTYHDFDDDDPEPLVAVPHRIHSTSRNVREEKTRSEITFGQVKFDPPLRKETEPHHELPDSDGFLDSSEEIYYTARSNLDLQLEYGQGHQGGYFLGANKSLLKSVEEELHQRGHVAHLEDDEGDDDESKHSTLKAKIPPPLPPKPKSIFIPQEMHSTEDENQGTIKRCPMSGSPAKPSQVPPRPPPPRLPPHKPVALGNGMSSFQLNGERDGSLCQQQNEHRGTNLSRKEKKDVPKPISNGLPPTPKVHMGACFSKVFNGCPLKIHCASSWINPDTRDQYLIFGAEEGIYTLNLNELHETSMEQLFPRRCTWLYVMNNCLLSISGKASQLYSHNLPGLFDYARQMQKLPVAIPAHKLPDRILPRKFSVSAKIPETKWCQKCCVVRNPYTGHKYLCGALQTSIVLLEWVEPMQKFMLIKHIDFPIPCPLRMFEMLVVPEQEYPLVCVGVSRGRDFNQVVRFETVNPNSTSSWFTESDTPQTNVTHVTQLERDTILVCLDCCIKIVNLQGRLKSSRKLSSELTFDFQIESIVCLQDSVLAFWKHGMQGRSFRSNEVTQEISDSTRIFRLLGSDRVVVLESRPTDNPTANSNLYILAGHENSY

Jurkat [20] = test: Immunostimulatory activity in anti-CD3/CD28 induced human Jurkat cells assessed as downregulation of NF-kappaB phosphorylation by Western blotting analysis; type: functional, cell-based
Jurkat [21] = test: Immunostimulatory activity in anti-CD3/CD28 induced human Jurkat cells assessed as upregulation of ERK expression by Western blotting analysis; type: functional, cell-based
[22] = Half life in ICR mouse at 1 mg/kg,iv measured upto 24 hrs by LC-MS analysis; type: ADME, organism-based; details: in vivo
[23] = Half life in ICR mouse at 10 mg/kg,po measured upto 24 hrs by LC-MS analysis; type: ADME, organism-based; details: in vivo
[24] = Tmax in ICR mouse at 10 mg/kg,po measured upto 24 hrs by LC-MS analysis; type: ADME, organism-based; details: in vivo
[25] = Cmax in ICR mouse at 10 mg/kg,po measured upto 24 hrs by LC-MS analysis; type: ADME, organism-based; details: in vivo
[26] = AUC (0 to t) in ICR mouse at 10 mg/kg,po measured upto 24 hrs by LC-MS analysis; type: ADME, organism-based; details: in vivo
[27] = Bioavailability in ICR mouse at 10 mg/kg,po or 1 mg/kg,iv measured upto 24 hrs by LC-MS analysis; type: ADME, organism-based; details: in vivo
CT26 = test: Antitumor activity against mouse CT26 cells implanted BALB/c mouse model assessed as tumor growth inhibition at 25 mg/kg,po administrated once daily for 15 days relative to control; type: functional; details: CT26, 360 h, time 15 day, read-out: TGI
[28] = Toxicity in BALB/c mouse implanted with mouse CT26 cells assessed as change in body weight at 25 mg/kg,po administrated once daily for 15 days; type: organism-based; details: in vivo, 360 h, time 15 day
[29] = molecular target: T1, Protein cereblon/Mitogen-activated protein kinase kinase kinase kinase 1; test: PROTAC activity at CRBN/HPK1 in human Jurkat cells assessed as degradation of HPK1 protein by Western blotting analysis; type: cell-based
[30] = molecular target: T1, Protein cereblon/Mitogen-activated protein kinase kinase kinase kinase 1; test: PROTAC activity at CRBN/HPK1 in human Jurkat cells assessed as downregulation of PFDN5 expression by Western blotting analysis; type: cell-based
[31] = molecular target: T1, Protein cereblon/Mitogen-activated protein kinase kinase kinase kinase 1; test: PROTAC activity at CRBN/HPK1 in human Jurkat cells assessed as downregulation of GLK expression by Western blotting analysis; type: cell-based
[32] = molecular target: T1, Protein cereblon/Mitogen-activated protein kinase kinase kinase kinase 1; test: PROTAC activity at CRBN/HPK1 in human Jurkat cells assessed as upregulation of PCGF6 expression by Western blotting analysis; type: cell-based
[33] = molecular target: T1, Protein cereblon/Mitogen-activated protein kinase kinase kinase kinase 1; test: PROTAC activity at CRBN/HPK1 in human Jurkat cells assessed as upregulation of HGK expression by Western blotting analysis; type: cell-based

T1 sequence (Q92918 whole entry, looked up): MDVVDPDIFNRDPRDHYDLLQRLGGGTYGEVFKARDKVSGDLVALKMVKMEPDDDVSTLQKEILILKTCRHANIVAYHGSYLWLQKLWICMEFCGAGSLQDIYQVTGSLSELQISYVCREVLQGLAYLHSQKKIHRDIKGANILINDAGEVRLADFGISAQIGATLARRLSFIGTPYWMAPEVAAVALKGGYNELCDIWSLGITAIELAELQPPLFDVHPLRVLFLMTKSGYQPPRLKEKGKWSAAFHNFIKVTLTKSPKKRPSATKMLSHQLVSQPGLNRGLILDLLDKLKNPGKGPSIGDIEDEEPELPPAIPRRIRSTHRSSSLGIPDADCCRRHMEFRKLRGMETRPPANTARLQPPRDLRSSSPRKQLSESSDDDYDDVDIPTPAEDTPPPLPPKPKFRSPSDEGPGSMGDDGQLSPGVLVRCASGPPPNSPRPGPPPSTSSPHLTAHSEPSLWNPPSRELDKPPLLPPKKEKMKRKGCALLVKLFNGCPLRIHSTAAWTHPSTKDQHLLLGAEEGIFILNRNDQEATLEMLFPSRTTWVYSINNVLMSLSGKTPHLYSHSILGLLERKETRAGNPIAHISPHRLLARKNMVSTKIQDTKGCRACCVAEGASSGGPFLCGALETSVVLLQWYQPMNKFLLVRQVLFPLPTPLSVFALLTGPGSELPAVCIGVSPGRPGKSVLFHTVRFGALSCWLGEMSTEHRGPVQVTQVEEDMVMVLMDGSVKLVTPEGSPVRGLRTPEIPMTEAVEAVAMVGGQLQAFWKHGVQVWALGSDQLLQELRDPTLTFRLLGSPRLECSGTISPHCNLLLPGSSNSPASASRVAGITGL
T1 sequence (Q96SW2 whole entry, looked up): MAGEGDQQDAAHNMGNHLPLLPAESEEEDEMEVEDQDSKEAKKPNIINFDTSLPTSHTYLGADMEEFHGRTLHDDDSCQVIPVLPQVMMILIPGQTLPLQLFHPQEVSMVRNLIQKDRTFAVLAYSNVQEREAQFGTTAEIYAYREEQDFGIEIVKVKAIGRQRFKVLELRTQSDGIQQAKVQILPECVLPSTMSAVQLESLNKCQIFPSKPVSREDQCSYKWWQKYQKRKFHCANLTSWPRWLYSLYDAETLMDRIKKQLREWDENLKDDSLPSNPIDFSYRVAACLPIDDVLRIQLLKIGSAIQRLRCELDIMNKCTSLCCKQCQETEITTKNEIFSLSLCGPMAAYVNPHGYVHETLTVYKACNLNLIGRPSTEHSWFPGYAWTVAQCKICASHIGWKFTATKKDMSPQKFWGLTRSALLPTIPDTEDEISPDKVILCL

In the case of `Cc1cc(-c2c[nH]c3ncc(-c4ccc(C5CCN(C6CN(c7ccc8c(c7)C(=O)N(C7CCC(=O)NC7=O)C8=O)C6)CC5)cc4)nc23)ccc1C(=O)N(C)C` (centres undefined), the Emax [1] is reported as 80.5%, the half-life [2] is reported as 6.58 h and the Stability [3] is reported as 100%. It also gave a remaining at 5 min [4] of 96.5%, a remaining at 1 h [5] of 94.5% and a Stability [6] of 100%. It also gave a remaining at 0.25 h [7] of 85.5%, a remaining at 1 h [8] of 59.4% and a microsomal CLint [9] of 1.4 µL/min/mg. For the same molecule, the CLint scaled [10] was 5.54 mL/min/kg, the hepatic extraction ratio [11] was 0.058 and the Activity [12] was “inactive”. For the same molecule, the Activity [13] was “inactive”, the Activity [14] was “Active” and the EC50 (T-cell line [15]) was 12.9 nM. The “fold change (FC)” value (T-cell line [16]) was 70, the Activity (T-cell line [17]) was 2361.07% and the Activity (Jurkat [18]) was “inactive”. The IC50 [19] was over 500 nM, the Activity (Jurkat [20]) was “Active” and the Activity (Jurkat [21]) was “Active”. The half-life [22] was 3.13 h, the half-life [23] was 4.33 h and the Tmax [24] was 4 h. It also gave a Cmax [25] of 10900 ng/mL, an AUC(0-t) at 24 h [26] of 137 µg·h/mL and a bioavailability [27] of 81.7%. For the same molecule, the inhibition in vivo at 25 mg/kg (CT26) was 47.2%, the Activity [28] was “Non-Toxic” and the Activity [29] was “Active”. The Activity [30] was “Active”, the Activity [31] was “Active” and the Activity [32] was “Active”. For the same molecule, the Activity [33] was “inactive”.
